Results on 22 compounds are retold here after patent US8466145B2, “Dipeptidyl peptidase IV inhibitors” (Orchid Chemicals & Pharmaceuticals Limited, priority 2009, dated 2013).

Data set [1] deals with T1, human recombinant Dipeptidyl peptidase IV enzyme (hrDPP IV) (Homo sapiens, UniProt P27487).
T1 construct: purchased R&D systems
Kind of data set: DPP IV assay, cleavage of H-Gly-Pro-AMC by human recombinant DPP-IV enzyme. It counts as biochemical. The note with it: for inhibition at 0.3 µM: 300 nM compound concentration. As to the method:
DPP IV activity was determined by the cleavage rate of 7-amino 4-methylcoumarin (AMC) from the substrate H-Gly-Pro-AMC. In brief, the assay was conducted by adding 3 ng of human recombinant Dipeptidyl peptidase IV enzyme (hrDPP IV, available commercially from R&D systems) in 70 μL of the assay buffer (25 mM HEPES, 140 mM NaCl and 1% BSA, pH 7.8) to a 96 well black flat bottom microtitre plate. Test compounds were added as 10 μL additions to all wells except blank and total activity wells. After incubation of test substance with enzyme for 60 minutes at room temperature, 10 μL of 100 μM substrate H-Gly-Pro-AMC was added. After mixing, the plate was left for 20 minutes at room temperature. Then the reaction was terminated by addition of 10 μL of 25% glacial acetic acid. Fluorescence was measured using Spectra Max Gemini XS (Molecular Devices, USA) at an excitation filter of 360 nm and emission filter of 460 nm.
Test compounds dissolved in DMSO were diluted with assay buffer at different concentrations and tested in duplicates. Percentage inhibition was calculated with respect to total activity. IC50 value was calculated using Prism Software.

T1 sequence (P27487 whole entry): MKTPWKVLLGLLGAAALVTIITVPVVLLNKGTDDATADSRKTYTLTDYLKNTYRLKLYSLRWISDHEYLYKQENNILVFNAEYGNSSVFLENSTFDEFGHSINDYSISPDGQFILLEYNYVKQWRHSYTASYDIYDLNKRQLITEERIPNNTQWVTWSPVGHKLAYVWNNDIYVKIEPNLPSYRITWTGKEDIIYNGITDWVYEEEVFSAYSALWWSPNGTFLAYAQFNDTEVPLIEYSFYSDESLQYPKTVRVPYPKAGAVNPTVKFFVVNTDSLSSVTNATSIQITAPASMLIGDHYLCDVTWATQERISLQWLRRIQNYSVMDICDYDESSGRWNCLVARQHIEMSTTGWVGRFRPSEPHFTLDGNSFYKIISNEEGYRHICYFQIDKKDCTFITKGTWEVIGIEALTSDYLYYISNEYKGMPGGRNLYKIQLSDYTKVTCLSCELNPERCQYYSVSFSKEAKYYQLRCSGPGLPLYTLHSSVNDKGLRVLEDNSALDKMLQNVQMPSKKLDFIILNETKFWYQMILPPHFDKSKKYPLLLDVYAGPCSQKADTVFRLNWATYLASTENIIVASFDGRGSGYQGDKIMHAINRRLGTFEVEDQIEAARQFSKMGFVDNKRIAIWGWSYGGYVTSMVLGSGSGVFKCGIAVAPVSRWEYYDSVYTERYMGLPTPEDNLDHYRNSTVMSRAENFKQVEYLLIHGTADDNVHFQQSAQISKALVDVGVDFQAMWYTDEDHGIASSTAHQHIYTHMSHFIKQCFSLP

`CC1(C)[C@@H](CN2CCCS2(=O)=O)CC[C@@]1(C)NCC(=O)N1C[C@@H](F)C[C@H]1C#N` [Example 28, (2S,4S)-1-(2-((1R,3S)-3-[(1,1-Dioxidoisothiazolidin-2-yl)methyl]-1,2,2-trimethylcyclopentylamino)acetyl)-4-fluoropyrrolidine-2-carbonitrile] returned a melting point of 126 to 128 °C. Moreover, in data set [1], the IC50 stood at 0.183 µM.
In the case of `CC1(C)[C@H](CNS(=O)(=O)c2ccc(F)cc2)CC[C@]1(C)NCC(=O)N1C[C@@H](F)C[C@H]1C#N` [Example 20], the melting point was 75 to 78 °C. Also, the concentration for half-maximal inhibition (IC50) in data set [1] turned out to be 0.105 µM.
On to `CC1(C)[C@H](CNC(=O)C2CCC(F)(F)CC2)CC[C@]1(C)NCC(=O)N1C[C@@H](F)C[C@H]1C#N` [Example 23, N-(((1R,3S)-3-(2-((2S,4S)-2-Cyano-4-fluoropyrrolidin-1-yl)-2-oxoethylamino)-2,2,3-trimethylcyclopentyl)methyl)-4,4-difluorocyclohexane carboxamide], for which the melting point lay within 189 to 194 °C. Moreover, in data set [1], the inhibition at 0.3 µM came out at 86.2%.
For the compound `CC1(C)[C@@H](NCC(=O)N2C[C@@H](F)C[C@H]2C#N)CC[C@@]1(C)CCCn1cncn1` [Example 83, (2S,4S)-1-(2-((1S,3R)-3-(3-(1H-1,2,4-Triazol-1-yl)propyl)-2,2,3-trimethylcyclopentylamino)acetyl)-4-fluoropyrrolidine-2-carbonitrile], the melting point lay within 152 to 154 °C. In data set [1], the half-maximal inhibitory concentration (IC50) was determined as 0.00403 µM and the inhibition at 0.3 µM stood at 93.9%.
The compound `CC1(C)[C@@H](CN2CC[C@@H](O)C2)CC[C@@]1(C)NCC(=O)N1C[C@@H](F)C[C@H]1C#N` [Example 38, (2S,4S)-4-fluoro-1-(2-((1R,3S)-3-(((R)-3-hydroxypyrrolidin-1-yl)methyl)-1,2,2-trimethylcyclopentylamino)acetyl)pyrrolidine-2-carbonitrile] showed a melting point of 130 to 135 °C. In addition, the inhibition at 0.3 µM in data set [1] worked out at 42.6%.
In the same order, the values of `Cc1noc([C@H]2CC[C@@](C)(NCC(=O)N3C[C@@H](F)C[C@H]3C#N)C2(C)C)n1` [Example 50, (2S,4S)-4-Fluoro-1-(2-((1R,3S)-1,2,2-trimethyl-3-(3-methyl-1,2,4-oxadiazol-5-yl)cyclopentylamino)acetyl)pyrrolidine-2-carbonitrile] are 147 to 151 °C and 15%.
For the compound `Cc1nc(C[C@H]2CC[C@@](C)(NCC(=O)N3C[C@@H](F)C[C@H]3C#N)C2(C)C)no1` [Example 54, (2S,4S)-4-Fluoro-1-(2-((1R,3R)-1,2,2-trimethyl-3-((5-methyl-1,2,4-oxadiazol-3-yl)methyl)cyclopentylamino)acetyl)pyrrolidine-2-carbonitrile], the melting point fell in the range of 121 to 123 °C. The inhibition at 0.3 µM in data set [1] was determined as 64.9%.
For `CC1(C)[C@@H](CS(=O)(=O)c2ccc(S(C)(=O)=O)cc2)CC[C@@]1(C)NCC(=O)N1C[C@@H](F)C[C@H]1C#N` [Example 42, (2S,4S)-4-Fluoro-1-(2-((1R,3S)-1,2,2-trimethyl-3-((4-(methylsulfonyl)phenylsulfonyl)methyl)cyclopentylamino)acetyl)pyrrolidine-2-carbonitrile], the melting point was in the range of 220 to 224 °C. Also, the IC50 in data set [1] was found to be 0.0913 µM.
As to `CN1C[C@]2(C)CC[C@](NCC(=O)N3C[C@@H](F)C[C@H]3C#N)(C1)C2(C)C` [Example 76, (2S,4S)-4-Fluoro-1-(2-((1R,5R)-3,5,8,8-tetramethyl-3-azabicyclo[3.2.1]octan-1-ylamino)acetyl)pyrrolidine-2-carbonitrile], the melting point was in the range of 122 to 126 °C. The inhibition at 0.3 µM in data set [1] was 4.25%.
Take `CC1(C)[C@H](Cn2cc(CO)nn2)CC[C@]1(C)NCC(=O)N1C[C@@H](F)C[C@H]1C#N` [Example 16, (2S,4S)-4-Fluoro-1-(2-((1S,3R)-3-((4-(hydroxymethyl)-1H-1,2,3-triazol-1-yl)methyl)-1,2,2-trimethylcyclopentylamino)acetyl)pyrrolidine-2-carbonitrile]: the melting point was 76 to 78 °C. In data set [1], the IC50 worked out at 0.0325 µM.
The compound `CC(C)c1noc([C@]2(C)CC[C@H](NCC(=O)N3C[C@@H](F)C[C@H]3C#N)C2(C)C)n1` [Example 67, (2S,4S)-4-Fluoro-1-(2-((1S,3R)-3-(3-isopropyl-1,2,4-oxadiazol-5-yl)-2,2,3-trimethylcyclopentylamino)acetyl)pyrrolidine-2-carbonitrile] gave a melting point of 82 to 85 °C. The inhibition at 0.3 µM in data set [1] turned out to be 79.2%.
Turning to `CC1(C)[C@H](Cn2nccn2)CC[C@]1(C)NCC(=O)N1C[C@@H](F)C[C@H]1C#N` [Example 12, (2S,4S)-1-(2-((1S,3R)-3-((2H-1,2,3-Triazol-2-yl)methyl)-1,2,2-trimethylcyclopentylamino)acetyl)-4-fluoropyrrolidine-2-carbonitrile], the melting point lay within 142 to 144 °C. Further, the IC50 in data set [1] was determined as 0.0372 ± 0.00367 µM.
On to `CC1(C)[C@@H](Cn2nccn2)CC[C@@]1(C)NCC(=O)N1C[C@@H](F)C[C@H]1C#N` [Example 10, (2S,4S)-1-(2-((1R,3S)-3-((2H-1,2,3-Triazol-2-yl)methyl)-1,2,2-trimethylcyclopentylamino)acetyl)-4-fluoropyrrolidine-2-carbonitrile], for which the melting point was in the range of 84 to 87 °C. Also, in data set [1], the half-maximal inhibitory concentration (IC50) was determined as 0.215 µM.
The compound `CC1(C)[C@@H](CNc2ccc(C(F)(F)F)cn2)CC[C@@]1(C)NCC(=O)N1C[C@@H](F)C[C@H]1C#N` [Example 27, (2S,4S)-4-Fluoro-1-(2-((1R,3S)-1,2,2-trimethyl-3-((5-(trifluoromethyl)pyridin-2-ylamino)methyl)cyclopentylamino)acetyl)pyrrolidine-2-carbonitrile] displayed a melting point of 52 to 58 °C. Further, the inhibition at 0.3 µM in data set [1] was 47.4%.
In turn, `CC1(C)[C@H](CNS(C)(=O)=O)CC[C@]1(C)NCC(=O)N1C[C@@H](F)C[C@H]1C#N` [Example 18, N-(((1R,3S)-3-(2-((2S,4S)-2-Cyano-4-fluoropyrrolidin-1-yl)-2-oxoethylamino)-2,2,3-trimethylcyclopentyl)methyl)methanesulfonamide] yielded a melting point of 154 to 157 °C. In addition, in data set [1], the inhibition at 0.3 µM worked out at 84.9%.
In the same order, the values of `CC1(C)[C@@H](CN2CCCC2)CC[C@@]1(C)NCC(=O)N1C[C@@H](F)C[C@H]1C#N` [Example 36, (2S,4S)-4-Fluoro-1-(2-((1R,3S)-1,2,2-trimethyl-3-(pyrrolidin-1-ylmethyl)cyclopentylamino)acetyl)pyrrolidine-2-carbonitrile] are 108 to 112 °C and 31.9%.
In turn, `CC1(C)[C@@H](Cn2cncn2)CC[C@@]1(C)NCC(=O)N1C[C@@H](F)C[C@H]1C#N` [Example 1, (2S,4S)-1-(2-((1R,3S)-3-((1H-1,2,4-Triazol-1-yl)methyl)-1,2,2-trimethylcyclopentylamino)acetyl)-4-fluoropyrrolidine-2-carbonitrile] displayed a melting point of 186 to 188 °C. Besides, in data set [1], the IC50 was 0.222 ± 0.0568 µM.
For `CC1(C)[C@H](CN2CCCC2)CC[C@]1(C)NCC(=O)N1C[C@@H](F)C[C@H]1C#N` [Example 37, (2S,4S)-4-Fluoro-1-(2-((1S,3R)-1,2,2-trimethyl-3-(pyrrolidin-1-ylmethyl)cyclopentylamino)acetyl)pyrrolidine-2-carbonitrile], the melting point fell in the range of 123 to 126 °C. Further, the 50% inhibitory concentration (IC50) in data set [1] came to 0.0224 µM.
`Cc1noc([C@@H]2CC[C@](C)(NCC(=O)N3C[C@@H](F)C[C@H]3C#N)C2(C)C)n1` [Example 51, (2S,4S)-4-Fluoro-1-(2-((1S,3R)-1,2,2-trimethyl-3-(3-methyl-1,2,4-oxadiazol-5-yl)cyclopentylamino)acetyl)pyrrolidine-2-carbonitrile] displayed a melting point of 160 to 163 °C. The IC50 in data set [1] turned out to be 0.0914 µM.
The compound `CC1(C)[C@@H](Cn2cc(CO)nn2)CC[C@@]1(C)NCC(=O)N1C[C@@H](F)C[C@H]1C#N` [Example 15, (2S,4S)-4-Fluoro-1-(2-((1R,3S)-3-((4-(hydroxymethyl)-1H-1,2,3-triazol-1-yl)methyl)-1,2,2-trimethyleyclopentylamino)acetyl)pyrrolidine-2-carbonitrile] yielded a melting point of 240 to 279 °C. Also, the inhibition at 0.3 µM in data set [1] is 60.5%.
In turn, `CC1(C)[C@@H](CS(=O)(=O)c2ccc(S(C)(=O)=O)cc2)CC[C@@]1(C)NCC(=O)N1CCC[C@H]1C#N` [Example 44, (S)-1-(2-((1R,3S)-1,2,2-Trimethyl-3-((4-(methylsulfonyl)phenylsulfonyl)methyl)cyclopentylamino)acetyl)pyrrolidine-2-carbonitrile] yielded a melting point of 162 to 166 °C. In data set [1], the 50% inhibitory concentration (IC50) is 0.582 µM.
Take `CC1(C)[C@@H](CN2CCCCC2)CC[C@@]1(C)NCC(=O)N1C[C@@H](F)C[C@H]1C#N` [Example 39, (2S,4S)-4-Fluoro-1-(2-((1R,3S)-1,2,2-trimethyl-3-(piperidin-1-ylmethyl)cyclopentylamino)acetyl)pyrrolidine-2-carbonitrile]: the melting point is 100 to 103 °C. Also, the inhibition at 0.3 µM in data set [1] stood at 45.9%.
